Non-standard residues stand in square brackets, D forms with d. Residues, ends and D or L forms follow the SMILES beside them. d1Nal = N[C@H](Cc1cccc2ccccc12)C(=O)O
Test system: conscious telemetered cynomolgus monkeys
Assay: Cardiovascular safety pharmacology test, intravenous infusion, telemetry
Format: in vivo, cynomolgus monkey
Experimental: This safety pharmacology test was performed to assess the possible cardiovascular effects of XMP.629 when administered via intravenous infusion. The test was an acute experiment to identify single-dose-induced side-effects as indicated, for example, in the Guideline for General Pharmacology Studies (Japan Ministry of Health and Welfare PAB/NND Notification No. 4, Jan. 29, 1995, the disclosure of which is incorporated herein by reference).
A telemetry device/transmitter (Data Sciences, St. Paul, Minn.) was surgically implanted in the subcutaneous pocket over the mid-abdominal region into the test monkeys. The blood pressure catheter of the telemetry device was run sub-cutaneously to the left groin region and inserted into the left femoral artery, with the catheter tip placed into the abdominal aorta. In addition, electrocardiogram leads were sub-cutaneously tunneled to the appropriate anatomical regions (i.e. negative lead paced at the base of the right side of the neck and the positive lead placed within the 5th intercostals space on the left side of the thoracic cage, near the sternum).
Intravenous administration of XMP.629 was given to conscious cynomolgus primates (four males) via telemetry systems in a series of 4 acute experiments, in which escalating doses were administered over four days, with a 3 to 27-day washout period between doses. Doses were administered over a two-hour period, at a rate of 2 mL/kg/hr. The vehicle, 10 mM sodium acetate buffer, was administered on Day 0, and XMP.629 at dose levels of 5, 10, and 20 mg/kg/2 hrs on days 4, 7, and 34, respectively. The infused volume per dose was calculated using the most recent body weight measurements.
Viability checks were performed twice daily on the animals. Body weights were obtained from the animals on the day of surgery and one or two days prior to each dose. Cardiovascular assessments and body temperature measurements were collected radiotelemetrically using the implanted telemetry device/transmitter for one 24 hour period prior to the Day 0 dosing session at the same frequency/periods collected on the days of dosing. On each day of dosing, the effect of XMP.629 on various physiological parameters, such as blood pressure waveform, systolic pressure, diastolic pressure, mean pressure, ECG (axial lead) waveform, heart rate, body temperature, QA interval, P-R interval, QRS interval, QT interval, R—R interval, and QTC interval, was observed two hours before the dosing period, every five minutes for 120 minutes during each infusion period, and for 22 hours after termination of infusion (once every five minutes for one hour and then once every 30 minutes for the remaining 21 hours). […]

CC(C)C[C@@H](NC(=O)[C@H](N)CCCCN)C(=O)N[C@H](Cc1ccccc1)C(=O)N[C@H](CCCNC(=N)N)C(=O)N[C@H](Cc1cccc2ccccc12)C(=O)N[C@H](CCC(N)=O)C(=O)N[C@H](C)C(=O)N[C@H](CCCCN)C(=O)N[C@H](Cc1cccc2ccccc12)C(N)=O [XMP.629, NH2-lys-leu-phe-arg-(3-(1-naphthyl)-ala)-gln-ala-lys-(3-(1-naphthyl)-ala)-CONH2] (H-[dK][dL][dF][dR][d1Nal][dQ][dA][dK][d1Nal]-NH2)
Prolongation in prothrombin and activated partial thromboplastin times with decreases in fibrinogen (20 mg/kg/2 hrs): 2 of 4 animals | heart rate, QA, P-R, QRS, and R-R intervals (5, 10, or 20 mg/kg/2 hrs): no effects | cardiac findings (10 or 20 mg/kg/2 hrs): ventricular extrasystoles and premature ventricular beats | intravenous infusion dose with no adverse, related-effect (cynomolgus monkey, in vivo, iv): 5 mg/kg/2 hrs
